In patent US20240050579A1, “HYALURONAN-NIMESULIDE CONJUGATE FOR TREATING LOCALLY ADVANCED OR METASTATIC TUMORS” (Aihol Corporation, priority 2022, published 2024):

How the values were obtained:
Assay type in all cases: in vivo
[1] = test system: HT-29 human colon adenocarcinoma cells; test: Tumor volume / TGI in HT-29 tumor-bearing mice; settings: for TGI (tumor growth inhibition rate): HT-29 mice, 5-FU 50 mg/kg QW
Experimental: (§1) Immunocompromised, Nu/Nu, Female athymic nu/nu (nude) mice (ages 5-6 weeks, LASCO) were purchased from LASCO. Animals were housed in individual HEPA ventilated cages (Innocage® IVC, Innovive USA) housed for stabilization. Fluorescent lighting was provided on a 12-hour cycle under temperature (20-23° C.) and humidity control (30-70%). Rodent feed and water were provided ad libitum.
(§2) HT-29 human colon adenocarcinoma cells (2×10^7) in PBS buffer were implanted subcutaneously on the right flank of each mouse. Once tumors were detectable, palpable and measurable, the primary tumor volumes were measured and recorded every 3 or 4 days. Tumor volume was calculated as ½(4π/3)(L/2)(W/2)H, where L is the length, W is the width, and H is the height of the tumor. […] Subjects were terminated from the study when the tumor volume reached approximately 1500 mm^3 or the body weight loss was greater than 20% (IACUC protocol limits).

[2] = test system: CT26 mouse colon carcinoma; test: Tumor volume / TGI in CT26 mice; settings: 5-FU alone 50 mg/kg IV QW
Experimental: Immunocompetent, female Balb/C […] mice (ages 6-8 weeks) were ordered and received from National Laboratory Animal Center. Animals were housed on irradiated corncob bedding in micro-isolator caging. Fluorescent lighting was provided on a 12-hour cycle under temperature (20-23° C.) and humidity control (30-70%). Rodent feed and autoclaved acidified water (pH 2.5-3) were provided ad libitum.
CT26 is an N-nitroso-N-methylurethane-(NNMU) induced, undifferentiated mouse colon carcinoma cell line. CT26 carcinoma cells were grown in McCoy's 5a culture medium supplemented with 10% (v/v) FBS and 1% PSN antibiotic mixture. The cells were maintained in an incubator with a humidified environment of 5% CO^2 at 37° C. in a 175 cm 2 flask and subcultured 2-3 times each week. On the study day, CT26 cells were thawed and prepared for inoculation into mice. Cells were washed in PBS, counted, and resuspended in cold PBS at concentrations of 2×10^6 viable cells/0.1 ml. […]
Animals were monitored weekly for palpable tumors or any changes in appearance or behavior. Once tumors were palpable, they were measured using calipers. Tumor volume was calculated using the following equation ½(4π/3)(L/2)(W/2)H, where L is the length, W is the width, and H is the height of the tumor. […] Data were expressed as mean±SEM.

[3] = test system: MDA-MB-231 human breast cancer cells; test: Tumor volume in MDA-MB-231 tumor-bearing mice; settings: 5-FU alone 30 mg/kg TIW vs vehicle control
Experimental: as §1
as §2, with “MDA-MB-231” for “HT-29”, “breast cancer Cells (5×10^6)” for “colon adenocarcinoma cells (2×10^7)”, “½×L×W^2,” for “½(4π/3)(L/2)(W/2)H,”, “length and” for “length,”, “width.” for “width, and H is the height of the tumor.”

For `O=c1[nH]cc(F)c(=O)[nH]1` [5-FU, 5-fluorouracil], the “TGI (tumor growth inhibition rate)” value ([1]; D21) was roughly 60%, the “TGI (tumor growth inhibition rate)” value ([1]; D28) was roughly 45% and the tumor growth ([1]; HT-29 tumor-bearing mice, 5-FU alone 50 mg/kg QW vs vehicle control) was “did not reduce tumor growth”. For the same compound, the TGI rate [2] was “approximately 70%” and the tumor growth [3] was “did reduce tumor growth”.
